Laboratory results reported in article PMC8815882, “Screening the pandemic response box identified benzimidazole carbamates, Olorofim and ravuconazole as promising drug candidates for the treatment of eumycetoma” (PLoS Neglected Tropical Diseases, 2022).
≈ marks a conversion by molar mass, not a printed value. Like-named read-outs stand apart in the source and are kept apart here. Blank lines part the entries; values can stand above or below the compound they belong to.

Key:
[1] = system: M. mycetomatis genome strain MM55; parameters: method as in PMID 29698504; conditions: parasitic DHODH inhibitors of the MMV Pathogen Box screened previously; cited from earlier work
M. mycetomatis MM55 = experiment: IC50 determination, 2-fold dilution series 16 to 0.03125 μM; format: cell-based, Madurella mycetomatis; conditions: for IC50 / IC90: Madurella mycetomatis
[2] = system: F. senegalensis strain CBS132257; experiment: CLSI M38-A2 based in vitro susceptibility screening at 25 μM; format: cell-based, Falciformispora senegalensis; conditions: selected if >75% (resazurin) or >80% (XTT) fungal growth inhibited
[3] = system: Me. romeroi strain CBS128765; experiment: as above; format: cell-based, Medicopsis romeroi; conditions: selected if >75% (resazurin) or >80% (XTT) fungal growth inhibited
eumycetoma = conditions: cited from earlier work
[4] = system: M. mycetomatis genome strain MM55; experiment: CLSI M38-A2 based in vitro susceptibility screening (XTT or resazurin), growth at fixed concentration; format: cell-based, Madurella mycetomatis; conditions: Madurella mycetomatis
[5] = system: ten different M. mycetomatis isolates; parameters: method as in PMID 24945848, PMID 22964246, PMID 31904836; conditions: asterisk: determined in previous works ref 19-21; cited from earlier work
[6] = system: M. mycetomatis isolate MM55; experiment: M. mycetomatis grain infection model in G. mellonella larvae, survival; format: in vivo, Galleria mellonella; parameters: In vivo efficacy, Larvae survival %: concentration or dose not given beside the values; conditions: for Larvae survival rate on day ten: 20 μM per larvae at 4, 28, 52 h after infection
[7] = system: M. pseudomycetomatis strain Mex2A; experiment: CLSI M38-A2 based in vitro susceptibility screening at 25 μM; format: cell-based, Madurella pseudomycetomatis; conditions: selected if >75% (resazurin) or >80% (XTT) fungal growth inhibited
[8] = system: M. tropicana strain CBS206.47; experiment: as above; format: cell-based, Madurella tropicana; conditions: selected if >75% (resazurin) or >80% (XTT) fungal growth inhibited
[9] = MM55, Table 2, M. mycetomatis MM55, read-out: IC50
[10] = G. mellonella larvae infected with M. mycetomatis

SMILES: O=C(NC1CC1)c1ccc(N2CCOc3ccc(Cl)cc32)s1 [MMV020537]
In vitro activity against M. mycetomatis [1]: no activity

SMILES: CC(C)C(NC(=O)Cc1cccc2ccccc12)C(=O)Nc1cccc(C#N)c1 (stereo not shown) [MMV020591]
In vitro activity against M. mycetomatis [1]: no activity

IC50 (M. mycetomatis MM55; [9]): 1.13 µM | IC50 (M. mycetomatis MM55; MM55, mean, read-out: IC50 mean): 1.13 µM | IC90 (M. mycetomatis MM55; MM55, read-out: IC90 mean): 2.21 µM | IC50 (M. mycetomatis MM55; MM55, replicate 1, read-out: IC50 1): 1.7 µM | IC90 (M. mycetomatis MM55; MM55, replicate 1, read-out: IC90 1): 3.8 µM | IC50 (M. mycetomatis MM55; MM55, replicate 2, read-out: IC50 2): 0.74 µM | IC90 (M. mycetomatis MM55; MM55, replicate 2, read-out: IC90 2): 1.32 µM | IC50 (M. mycetomatis MM55; MM55, replicate 3, read-out: IC50 3): 0.94 µM | IC90 (M. mycetomatis MM55; MM55, replicate 3, read-out: IC90 3): 1.5 µM
SMILES: CCC(C)n1ncn(-c2ccc(N3CCN(c4ccc(OCC5COC(Cn6cncn6)(c6ccc(Cl)cc6Cl)O5)cc4)CC3)cc2)c1=O (stereo not shown) [MMV637528, Itraconazole, reference compound]
Inhibits growth of Falciformispora senegalensis at 25 μM [2]: did not inhibit the growth | Inhibits growth of Medicopsis romeroi at 25 μM [3]: did not inhibit the growth | Cure rate of patients (eumycetoma; eumycetoma patients, itraconazole with surgery): 8% - 26% | activity at 25 µM ([4]; mean, read-out: Percentage survival at 25um, 25 uM mean): -1.04% | activity at 25 µM ([4]; replicate A, read-out: Percentage survival at 25um, 25 um A): -2.88% | activity at 25 µM ([4]; replicate B, read-out: Percentage survival at 25um, 25 uM B): -2.55% | activity at 25 µM ([4]; replicate C, read-out: Percentage survival at 25um, 25 uM C): 2.31% | activity at 100 µM ([4]; 100 uM, mean, read-out: Percentage survival at 100um, 100 uM mean): 2.34% | activity at 100 µM ([4]; 100 uM, replicate (first column), read-out: Percentage survival at 100um, 100 uM A): -3.71% | activity at 100 µM ([4]; 100 uM, replicate (second column), read-out: Percentage survival at 100um, 100 uM A): 3.66% | activity at 100 µM ([4]; 100 uM, replicate (third column), read-out: Percentage survival at 100um, 100 uM A): 7.05% | MIC50 [5]: 0.05 µM (≈ 0.0353 µg/mL) | MIC range [5]: <0.02 to 0.25 µM

IC50 (M. mycetomatis MM55; [9]): < 0.016 µM | IC50 (M. mycetomatis MM55; MM55, mean of replicates, read-out: IC50 mean): < 0.098 µM | IC50 (M. mycetomatis MM55; MM55, replicate 1, read-out: IC50 1 um): < 0.098 µM | IC90 (M. mycetomatis MM55; MM55, replicate 1, read-out: IC90 1 um): 3.1 µM | IC50 (M. mycetomatis MM55; MM55, replicate 2, read-out: IC50 2 um): < 0.098 µM | IC90 (M. mycetomatis MM55; MM55, replicate 2, read-out: IC90 2 um): < 0.098 µM | IC50 (M. mycetomatis MM55; MM55, replicate 3, read-out: IC50 3 um): < 0.098 µM | IC90 (M. mycetomatis MM55; MM55, replicate 3, read-out: IC90 3 um): < 0.098 µM
SMILES: Cc1cc(-c2ccccc2)c(C(=O)C(=O)Nc2ccc(N3CCN(c4ncc(F)cn4)CC3)cc2)n1C [MMV1782354, Olorofim]
Drug static or cidal (M. mycetomatis MM55; M. mycetomatis): Cidal | Inhibits growth of Falciformispora senegalensis at 25 μM [2]: no activity | Larvae survival rate on day ten ([6]; listed as Olorofim): 33% | Larvae survival rate on day ten ([6]; listed as olorofim): 33.3% | In vivo efficacy, Enhanced survival compared to control? [6, 10]: yes ** | In vivo efficacy, Larvae survival % [6, 10]: 0.0443% | Inhibits growth of Madurella pseudomycetomatis at 25 μM [7]: able to inhibit the growth | Inhibits growth of Medicopsis romeroi at 25 μM [3]: no activity | activity at 25 µM ([4]; mean of three, M. mycetomatis MM55, read-out: Percentage survival at 25um, 25 uM mean): 8.22% | activity at 25 µM ([4]; replicate A, M. mycetomatis MM55, read-out: Percentage survival at 25um, 25 um A): 5.03% | activity at 25 µM ([4]; replicate B, M. mycetomatis MM55, read-out: Percentage survival at 25um, 25 uM B): 11.4% | activity at 25 µM ([4]; replicate C, M. mycetomatis MM55, read-out: Percentage survival at 25um, 25 uM C): 8.27% | activity at 100 µM ([4]; 100 uM, mean of three, M. mycetomatis MM55, read-out: Percentage survival at 100um, 100 uM mean): 8.8% | activity at 100 µM ([4]; 100 uM, replicate 1, M. mycetomatis MM55, read-out: Percentage survival at 100um, 100 uM A (first replicate column)): 0.903% | Percent fungal survival at 100 µM ([4]; 100 uM, replicate 2, M. mycetomatis MM55, read-out: Percentage survival at 100um, 100 uM A (second replicate column)): 10.2% | activity at 100 µM ([4]; 100 uM, replicate 3, M. mycetomatis MM55, read-out: Percentage survival at 100um, 100 uM A (third replicate column)): 15.3% | Inhibits growth of Madurella tropicana at 25 μM [8]: able to inhibit the growth | MIC50 [5]: 0.06 µM (≈ 0.0299 µg/mL) | MIC range [5]: 0.004 to 0.13 µM

SMILES: CN(C/C=C/C#CC(C)(C)C)Cc1cccc2ccccc12 [Terbinafine]
Inhibits growth of Falciformispora senegalensis at 25 μM [2]: inhibit the growth | Inhibits growth of Madurella pseudomycetomatis at 25 μM [7]: not the Madurella species | Inhibits growth of Medicopsis romeroi at 25 μM [3]: inhibit the growth | Cure rate of patients (eumycetoma; Senegal, 500 mg twice daily for 24-48 weeks combined with surgery): 30%
